PubChem BioAssay AID248 (DTP/NCI, 2004)
Toxic doses and inconclusive results are not listed. Rule as the data show it: active = T/C of 150% or more; inactive = T/C below 125%.

Tested on: L1210 leukemia ip in BDF1 mice, survival T/C
Assay: NCI In Vivo Anticancer Drug Screen. Data for tumor model L1210 Leukemia (intraperitoneal) in B6D2F1 (BDF1) mice
Settings: endpoint: mean survival time, higher = longer survival
Procedure, shortened: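 Transplanted-tumor mice were given test agent; controls received vehicle only. Survival readings from the two groups were divided (treated over control).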

Measured: T/C

CC1OC(O[C@@H]2C=C3CC[C@@H]4[C@H](CC[C@]5(C)[C@@H](c6ccc(=O)oc6)CC[C@]45O)[C@@]3(C)CC2)C(O)C(OC2OC(CO)C(O)C(O)C2O)C1O (stereo partly specified)
inactive: dose: 1.0 mg/kg/injection, schedule: Q01DX015 (sc), vehicle: steriod suspending solution 95 % of control | dose: 2.0 mg/kg/injection, schedule: Q01DX015 (sc), vehicle: steriod suspending solution 98 % of control | dose: 4.0 mg/kg/injection, schedule: Q01DX015 (sc), vehicle: steriod suspending solution 96 % of control | dose: 5.0 mg/kg/injection, schedule: Q01DX001 (ip), vehicle: saline 95 % of control | dose: 8.0 mg/kg/injection, schedule: Q01DX015 (sc), vehicle: steriod suspending solution 97 % of control | dose: 10.0 mg/kg/injection, schedule: Q01DX001 (ip), vehicle: saline 106 % of control | dose: 16.0 mg/kg/injection, schedule: Q01DX015 (sc), vehicle: steriod suspending solution 103 % of control | dose: 20.0 mg/kg/injection, schedule: Q01DX001 (ip), vehicle: saline 97 % of control | dose: 32.0 mg/kg/injection, schedule: Q01DX015 (sc), vehicle: steriod suspending solution 100 % of control

COc1c2c(c(OC(C)=O)c3c1C(=O)c1ccccc1C3=O)CCCC2
inactive: dose: 6.25 mg/kg/injection, schedule: Q01DX001 (ip), vehicle: saline 100 % of control | dose: 12.5 mg/kg/injection, schedule: Q01DX001 (ip), vehicle: saline 96 % of control | dose: 25.0 mg/kg/injection, schedule: Q01DX001 (ip), vehicle: saline 101 % of control | dose: 50.0 mg/kg/injection, schedule: Q01DX001 (ip), vehicle: saline 95 % of control | dose: 100.0 mg/kg/injection, schedule: Q01DX001 (ip), vehicle: saline 93 % of control

CCN(CC)CCOC(=O)c1ccc(C(Cl)Cl)cc1
inactive: dose: 50.0 mg/kg/injection, schedule: Q01DX009 (ip), vehicle: saline 88 % of control | dose: 100.0 mg/kg/injection, schedule: Q01DX009 (ip), vehicle: saline 88 % of control

OC/C(=C/c1ccccc1)c1ccccc1
inactive: dose: 50.0 mg/kg/injection, schedule: Q01DX009 (ip), vehicle: Klucel (hydroxypropylcellulose) (HPC) 98 % of control | dose: 75.0 mg/kg/injection, schedule: Q04DX003 (ip), vehicle: Klucel (hydroxypropylcellulose) (HPC) 100 % of control | dose: 100.0 mg/kg/injection, schedule: Q01DX009 (ip), vehicle: Klucel (hydroxypropylcellulose) (HPC) 91 % of control | dose: 150.0 mg/kg/injection, schedule: Q04DX003 (ip), vehicle: Klucel (hydroxypropylcellulose) (HPC) 98 % of control | dose: 200.0 mg/kg/injection, schedule: Q01DX009 (ip), vehicle: Klucel (hydroxypropylcellulose) (HPC) 93 % of control | dose: 300.0 mg/kg/injection, schedule: Q04DX003 (ip), vehicle: Klucel (hydroxypropylcellulose) (HPC) 96 % of control

CCCNC(=O)NC1CCCCC1
inactive: dose: 264.0 mg/kg/injection, schedule: Q01DX001 (ip), vehicle: carboxymethylcellulose (CMC) 101 % of control | dose: 400.0 mg/kg/injection, schedule: Q01DX001 (ip), vehicle: carboxymethylcellulose (CMC) 90 % of control | dose: 600.0 mg/kg/injection, schedule: Q01DX001 (ip), vehicle: carboxymethylcellulose (CMC) 98 % of control

CN1CCN(Cn2cnc3c2c(=O)n(C)c(=O)n3C)CC1
inactive: dose: 75.0 mg/kg/injection, schedule: Q01DX001 (ip), vehicle: saline 92 % of control | dose: 150.0 mg/kg/injection, schedule: Q01DX001 (ip), vehicle: saline 100 % of control | dose: 300.0 mg/kg/injection, schedule: Q01DX001 (ip), vehicle: saline 122 % of control

C[n+]1c2ccccc2c(N=[N+]=[N-])c2ccccc21
inactive: dose: 6.25 mg/kg/injection, schedule: Q01DX001 (ip), vehicle: suspension in saline 98 % of control | dose: 12.5 mg/kg/injection, schedule: Q01DX001 (ip), vehicle: suspension in saline 98 % of control | dose: 12.5 mg/kg/injection, schedule: Q04DX003 (ip), vehicle: suspension in saline 97 % of control | dose: 25.0 mg/kg/injection, schedule: Q01DX001 (ip), vehicle: suspension in saline 98 % of control | dose: 25.0 mg/kg/injection, schedule: Q04DX003 (ip), vehicle: suspension in saline 95 % of control | dose: 50.0 mg/kg/injection, schedule: Q04DX003 (ip), vehicle: suspension in saline 105 % of control

NC(=S)N/N=C/c1ccc(Br)cn1
inactive: dose: 6.25 mg/kg/injection, schedule: Q01DX009 (ip), vehicle: saline with Tween-80 117 % of control | dose: 12.5 mg/kg/injection, schedule: Q01DX009 (ip), vehicle: saline with Tween-80 113 % of control
